According to ChEMBL document CHEMBL4043146, “Macrocyclic factor XIa inhibitors” (Bioorg Med Chem Lett, 2017):

What was measured:
[1] = tested on: Plasma; assay: Anticoagulant activity in human plasma assessed as concentration required to produce 50% increase in activated partial thromboplastin time relative to baseline control; assay type: functional
[2] = biological target: Coagulation factor XI (Homo sapiens, UniProt P03951); assay: Inhibition of human F11a using peptide substrate by spectrophotometry
Sequence of Coagulation factor XI (P03951 19-387 limits assumed): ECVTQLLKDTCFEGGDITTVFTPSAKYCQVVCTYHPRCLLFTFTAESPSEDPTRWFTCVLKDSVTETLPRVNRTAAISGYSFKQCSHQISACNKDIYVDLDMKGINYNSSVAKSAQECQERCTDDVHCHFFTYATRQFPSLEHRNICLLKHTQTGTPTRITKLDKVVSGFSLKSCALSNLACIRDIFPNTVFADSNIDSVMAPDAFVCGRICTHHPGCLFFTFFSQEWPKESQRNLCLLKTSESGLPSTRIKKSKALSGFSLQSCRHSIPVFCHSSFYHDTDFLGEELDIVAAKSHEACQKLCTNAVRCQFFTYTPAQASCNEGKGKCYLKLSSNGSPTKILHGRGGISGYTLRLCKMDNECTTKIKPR
Sequence of Coagulation factor XI (P03951 388-625 limits assumed): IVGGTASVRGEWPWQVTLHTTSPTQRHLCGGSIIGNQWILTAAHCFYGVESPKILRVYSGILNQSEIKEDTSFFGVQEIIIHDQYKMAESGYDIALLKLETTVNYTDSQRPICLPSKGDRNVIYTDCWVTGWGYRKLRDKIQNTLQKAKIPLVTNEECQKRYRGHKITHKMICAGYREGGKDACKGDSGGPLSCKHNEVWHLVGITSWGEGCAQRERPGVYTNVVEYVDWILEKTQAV

[3] = Binding affinity to trypsin (unknown origin); design: species or system Homo sapiens
[4] = biological target: T1, Coagulation factor VII (Homo sapiens, UniProt P08709); assay: Binding affinity to F7a (unknown origin)
T1 sequence (P08709 whole entry): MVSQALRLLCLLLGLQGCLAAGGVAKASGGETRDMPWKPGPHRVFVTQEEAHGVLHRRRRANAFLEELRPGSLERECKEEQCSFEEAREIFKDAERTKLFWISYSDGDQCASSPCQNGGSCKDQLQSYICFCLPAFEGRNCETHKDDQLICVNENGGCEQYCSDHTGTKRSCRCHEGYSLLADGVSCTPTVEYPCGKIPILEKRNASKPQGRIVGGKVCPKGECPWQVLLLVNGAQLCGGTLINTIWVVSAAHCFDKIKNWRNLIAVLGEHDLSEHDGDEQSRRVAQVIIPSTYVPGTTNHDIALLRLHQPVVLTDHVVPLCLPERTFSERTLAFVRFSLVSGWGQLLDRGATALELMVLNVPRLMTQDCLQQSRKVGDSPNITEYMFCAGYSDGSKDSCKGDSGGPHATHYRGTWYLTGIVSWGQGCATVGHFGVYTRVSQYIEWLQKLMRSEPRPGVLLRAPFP

[5] = biological target: Coagulation factor X (Homo sapiens, UniProt P00742); assay: Binding affinity to F10a (unknown origin)
Sequence of Coagulation factor X (P00742 41-179 limits assumed): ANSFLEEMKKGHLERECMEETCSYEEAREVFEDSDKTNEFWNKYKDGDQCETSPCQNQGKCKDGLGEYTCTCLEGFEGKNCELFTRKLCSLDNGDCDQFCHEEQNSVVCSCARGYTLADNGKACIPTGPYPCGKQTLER
Sequence of Coagulation factor X (P00742 235-488 limits assumed): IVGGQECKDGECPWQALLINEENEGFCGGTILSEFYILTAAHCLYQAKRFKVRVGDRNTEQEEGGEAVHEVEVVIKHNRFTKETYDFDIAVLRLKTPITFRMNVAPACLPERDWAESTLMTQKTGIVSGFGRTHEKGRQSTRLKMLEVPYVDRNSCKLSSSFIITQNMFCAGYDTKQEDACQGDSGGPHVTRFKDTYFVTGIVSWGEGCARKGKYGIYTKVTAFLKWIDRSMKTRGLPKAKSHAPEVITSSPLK

[6] = biological target: Prothrombin (Homo sapiens, UniProt P00734); assay: Binding affinity to F2a (unknown origin)

Row | Ki [2] | Compound | Activity [1] | other results
1 | 0.32 nM | COC(=O)Nc1ccc2c(c1)NC(=O)CCc1cccc(n1)C[C@H](NC(=O)/C=C/c1cc(Cl)ccc1-n1cnnn1)c1nc-2c[nH]1 | 0.27 to 0.4 µM | 
2 | 0.53 nM | COC(=O)Nc1ccc2c(c1)NC(=O)CCc1cc(ccc1F)C[C@H](NC(=O)/C=C/c1cc(Cl)ccc1-n1cnnn1)c1nc-2c[nH]1 | 1.4 µM | 
3 | 1.5 nM | COC(=O)Nc1ccc2c(c1)NC(=O)CCc1cccc(c1)C[C@H](NC(=O)/C=C/c1cc(Cl)ccc1-n1cnnn1)c1nc-2c[nH]1 | 2.1 µM | 
4 | 0.02 nM | COC(=O)Nc1ccc2c(c1)NC(=O)CCc1nc(ccc1F)C[C@H](NC(=O)/C=C/c1cc(Cl)ccc1-n1cnnn1)c1nc-2c[nH]1 | 0.27 µM | Ki [3]: 670 nM; Ki [4]: 1100 nM; Ki [5]: 1400 nM; Ki [6]: > 13000 nM
5 | 17 nM | COC(=O)Nc1ccc2c(c1)CCCCc1cccc(c1)C[C@H](NC(=O)/C=C/c1cc(Cl)ccc1-n1cnnn1)c1nc-2c[nH]1 | 23 µM | 

More lines, now with the values behind:

Row | Compound | Ki [2] | Activity [1] | other results
6 | COC(=O)Nc1ccc2c(c1)CCCCc1cccc(c1)C[C@H](NC(=O)/C=C/c1cc(Cl)ccc1-n1cnnn1)c1nc-2c(Cl)[nH]1 |  | 34 µM | 
7 | COC(=O)Nc1ccc2c(c1)CNC(=O)c1cccc(c1)C[C@H](NC(=O)/C=C/c1cc(Cl)ccc1-n1cnnn1)c1nc-2c[nH]1 | 500 nM |  | 
8 | COC(=O)Nc1ccc2c(c1)CNC(=O)c1ccc(cc1)C[C@H](NC(=O)/C=C/c1cc(Cl)ccc1-n1cnnn1)c1nc-2c[nH]1 | 6400 nM |  | 
9 | COC(=O)Nc1ccc2c(c1)CNC(=O)c1cccc(c1)C[C@H](NC(=O)/C=C/c1cc(Cl)ccc1-n1cnnn1)c1nc-2c(Cl)[nH]1 | 92 nM |  | 
